{"source": "patent US11357779B2", "about": "(G1 Therapeutics, Inc., priority 2018, dated 2022)", "test": "Plasma concentration versus time of Compound I and metabolite Compound III in patients dosed QD or BID with Form B of Compound II plus fulvestrant", "assay_type": "in vivo, human", "source_text": "Patients were enrolled into 1 of 2 parallel, independently operating, dose-escalation dosing cohorts with Form B of Compound II administered continuously either once daily (QD) or twice daily (BID) with food with fixed-dose fulvestrant (intramuscularly every 14 days for the first three injections and then every 28 days). Pre- or perimenopausal patients also received goserelin for the duration of study treatment. A […] agonist was started at least 28 days before the first dose of Form B, and those patients who were taking another LHRH agonist were switched to goserelin on Day 1. Patients were split into […] cohorts providing once a day (QD) dosing of 200 mg, 300 mg, 400 mg, 500 mg, or 650 mg of Form B, or twice a day (BID) dosing of 100 mg, 150 mg, or 200 mg of Form B. The second dose in BID cohorts was not administered in the evening until at least 12 hours after the initial morning dose of Form B. The dosing cohorts for Form B of Compound II are provided in Table 1.\nBlood samples were collected at the following time points relative to the morning dose of Form B at Day 1 and at Day 29: pre-dose (0 hour) and 1, 2, 3, 4, 6, 8, 10, 12 (prior to the evening dose in the BID cohorts), and 24 (prior to the next day's morning dose) hours after dosing. A 5-minute time window was allowed for samples collected between the predose and 3 hours after Form B dosing. A 15-minute window was allowed for samples collected between 4 to 12 hours after Form B dosing. A 1-hour window was allowed for the sample collected 24 hours after Form B dosing. Blood samples for Compound I PK trough levels were collected pre-dose at Day 8, Day 15, and Day 22 prior to the morning administration of Compound I. Plasma concentrations of Compound I and its metabolite, Compound III, were measured using validated methods.\nAnalysis of plasma concentration versus time data for calculation of standard pharmacokinetic (PK) parameters following oral administration was conducted using Phoenix WinNonlin version 6.3 using actual blood sampling times.", "key": {"[1]": {"details": "Cohort 3, 400 mg QD of Form B, Day 8"}, "[2]": {"details": "Cohort 3, 400 mg QD of Form B, Day 15"}, "[3]": {"details": "Cohort 3, 400 mg QD of Form B, Day 22"}, "[4]": {"details": "Cohort 4, 500 mg QD of Form B, Day 8"}, "[5]": {"details": "Cohort 4, 500 mg QD of Form B, Day 15"}, "[6]": {"details": "Cohort 4, 500 mg QD of Form B, Day 22"}, "[7]": {"details": "Cohort 7, 150 mg BID of Form B, Day 29, 0.0 h"}, "[8]": {"details": "Cohort 7, 150 mg BID of Form B, Day 29, 1.0 h"}, "[9]": {"details": "Cohort 7, 150 mg BID of Form B, Day 29, 2.0 h"}, "[10]": {"details": "Cohort 7, 150 mg BID of Form B, Day 29, 3.0 h"}, "[11]": {"details": "Cohort 7, 150 mg BID of Form B, Day 29, 4.0 h"}, "[12]": {"details": "Cohort 7, 150 mg BID of Form B, Day 29, 6.0 h"}, "[13]": {"details": "Cohort 7, 150 mg BID of Form B, Day 29, 8.0 h"}, "[14]": {"details": "Cohort 7, 150 mg BID of Form B, Day 29, 10.0 h"}, "[15]": {"details": "Cohort 7, 150 mg BID of Form B, Day 29, 12.0 h"}}, "data": [{"smiles": "CC(C)N1CCN(c2ccc(Nc3ncc4cc5n(c4n3)C3(CCCCC3)CNC5=O)nc2)CC1", "note": "[Compound I, 2′-((5-(4-isopropylpiperazin-1-yl)pyridin-2-yl)amino)-7′,8′-dihydro-6′H-spiro[cyclohexane-1,9′-pyrazino[1′,2′:1,5]pyrrolo[2,3-d]pyrimidin]-6′-one]", "values": [{"measurement": "Trough Compound I Concentration", "setting": "200 mg QD of Form B, Day 8, Mean", "result": 4.93, "unit": "ng/mL"}, {"measurement": "Trough Compound I Concentration", "setting": "200 mg QD of Form B, Day 8, Median", "result": 4.22, "unit": "ng/mL"}, {"measurement": "Trough Compound I Concentration", "setting": "200 mg QD of Form B, Day 15, Mean", "result": 5.56, "unit": "ng/mL"}, {"measurement": "Trough Compound I Concentration", "setting": "200 mg QD of Form B, Day 15, Median", "result": 4.59, "unit": "ng/mL"}, {"measurement": "Trough Compound I Concentration", "setting": "200 mg QD of Form B, Day 22, Mean", "result": 6.24, "unit": "ng/mL"}, {"measurement": "Trough Compound I Concentration", "setting": "200 mg QD of Form B, Day 22, Median", "result": 5.32, "unit": "ng/mL"}, {"measurement": "Trough Compound I Concentration", "setting": "300 mg QD of Form B, Day 8, Mean", "result": 14.0, "unit": "ng/mL"}, {"measurement": "Trough Compound I Concentration", "setting": "300 mg QD of Form B, Day 8, Median", "result": 17.3, "unit": "ng/mL"}, {"measurement": "Trough Compound I Concentration", "setting": "300 mg QD of Form B, Day 15, Mean", "result": 16.7, "unit": "ng/mL"}, {"measurement": "Trough Compound I Concentration", "setting": "300 mg QD of Form B, Day 15, Median", "result": 19.9, "unit": "ng/mL"}, {"measurement": "Trough Compound I Concentration", "setting": "300 mg QD of Form B, Day 22, Mean", "result": 16.4, "unit": "ng/mL"}, {"measurement": "Trough Compound I Concentration", "setting": "300 mg QD of Form B, Day 22, Median", "result": 10.9, "unit": "ng/mL"}, {"measurement": "Trough Compound I Concentration, Max", "setting": "[1]", "result": 6.85, "unit": "ng/mL"}, {"measurement": "Trough Compound I Concentration, Mean", "setting": "[1]", "result": 5.63, "unit": "ng/mL"}, {"measurement": "Trough Compound I Concentration, Median", "setting": "[1]", "result": 6.16, "unit": "ng/mL"}, {"measurement": "Trough Compound I Concentration, Min", "setting": "[1]", "result": 3.87, "unit": "ng/mL"}, {"measurement": "Trough Compound I Concentration, Max", "setting": "[2]", "result": 10.2, "unit": "ng/mL"}, {"measurement": "Trough Compound I Concentration, Mean", "setting": "[2]", "result": 6.66, "unit": "ng/mL"}, {"measurement": "Trough Compound I Concentration, Median", "setting": "[2]", "result": 5.33, "unit": "ng/mL"}, {"measurement": "Trough Compound I Concentration, Min", "setting": "[2]", "result": 4.46, "unit": "ng/mL"}, {"measurement": "Trough Compound I Concentration, Max", "setting": "[3]", "result": 11.7, "unit": "ng/mL"}, {"measurement": "Trough Compound I Concentration, Mean", "setting": "[3]", "result": 9.34, "unit": "ng/mL"}, {"measurement": "Trough Compound I Concentration, Median", "setting": "[3]", "result": 10.4, "unit": "ng/mL"}, {"measurement": "Trough Compound I Concentration, Min", "setting": "[3]", "result": 5.91, "unit": "ng/mL"}, {"measurement": "Trough Compound I Concentration, Mean", "setting": "[4]", "result": 17.1, "unit": "ng/mL"}, {"measurement": "Trough Compound I Concentration, Min", "setting": "[4]", "result": 10.6, "unit": "ng/mL"}, {"measurement": "Trough Compound I Concentration, Mean", "setting": "[5]", "result": 23.8, "unit": "ng/mL"}, {"measurement": "Trough Compound I Concentration, Min", "setting": "[5]", "result": 14.5, "unit": "ng/mL"}, {"measurement": "Trough Compound I Concentration, Mean", "setting": "[6]", "result": 19.8, "unit": "ng/mL"}, {"measurement": "Trough Compound I Concentration, Min", "setting": "[6]", "result": 14.4, "unit": "ng/mL"}, {"measurement": "Trough Compound I Concentration, Mean", "setting": "Cohort 7, 150 mg BID of Form B, Day 15", "result": 24.8, "unit": "ng/mL"}, {"measurement": "Trough Compound I Concentration, Mean", "setting": "Cohort 7, 150 mg BID of Form B, Day 22", "result": 20.6, "unit": "ng/mL"}, {"measurement": "Compound I Concentration, Mean", "setting": "[7]", "result": 26.2, "unit": "ng/mL"}, {"measurement": "Compound I Concentration, Min", "setting": "[7]", "result": 9.03, "unit": "ng/mL"}, {"measurement": "Compound I Concentration, Max", "setting": "[8]", "result": 57.0, "unit": "ng/mL"}, {"measurement": "Compound I Concentration, Mean", "setting": "[8]", "result": 37.6, "unit": "ng/mL"}, {"measurement": "Compound I Concentration, Min", "setting": "[8]", "result": 27.0, "unit": "ng/mL"}, {"measurement": "Compound I Concentration, Max", "setting": "[9]", "result": 64.9, "unit": "ng/mL"}, {"measurement": "Compound I Concentration, Mean", "setting": "[9]", "result": 41.3, "unit": "ng/mL"}, {"measurement": "Compound I Concentration, Min", "setting": "[9]", "result": 24.6, "unit": "ng/mL"}, {"measurement": "Compound I Concentration, Max", "setting": "[10]", "result": 76.6, "unit": "ng/mL"}, {"measurement": "Compound I Concentration, Mean", "setting": "[10]", "result": 46.0, "unit": "ng/mL"}, {"measurement": "Compound I Concentration, Min", "setting": "[10]", "result": 25.7, "unit": "ng/mL"}, {"measurement": "Compound I Concentration, Max", "setting": "[11]", "result": 83.2, "unit": "ng/mL"}, {"measurement": "Compound I Concentration, Mean", "setting": "[11]", "result": 50.2, "unit": "ng/mL"}, {"measurement": "Compound I Concentration, Min", "setting": "[11]", "result": 30.5, "unit": "ng/mL"}, {"measurement": "Compound I Concentration, Max", "setting": "[12]", "result": 67.2, "unit": "ng/mL"}, {"measurement": "Compound I Concentration, Mean", "setting": "[12]", "result": 38.0, "unit": "ng/mL"}, {"measurement": "Compound I Concentration, Min", "setting": "[12]", "result": 20.3, "unit": "ng/mL"}, {"measurement": "Compound I Concentration, Max", "setting": "[13]", "result": 67.4, "unit": "ng/mL"}, {"measurement": "Compound I Concentration, Mean", "setting": "[13]", "result": 36.7, "unit": "ng/mL"}, {"measurement": "Compound I Concentration, Min", "setting": "[13]", "result": 15.8, "unit": "ng/mL"}, {"measurement": "Compound I Concentration, Max", "setting": "[14]", "result": 59.7, "unit": "ng/mL"}, {"measurement": "Compound I Concentration, Mean", "setting": "[14]", "result": 32.2, "unit": "ng/mL"}, {"measurement": "Compound I Concentration, Min", "setting": "[14]", "result": 13.0, "unit": "ng/mL"}, {"measurement": "Compound I Concentration, Max", "setting": "[15]", "result": 58.1, "unit": "ng/mL"}, {"measurement": "Compound I Concentration, Mean", "setting": "[15]", "result": 28.5, "unit": "ng/mL"}, {"measurement": "Compound I Concentration, Min", "setting": "[15]", "result": 10.2, "unit": "ng/mL"}]}]}
